Measurements reported in US20150045358A1, “PHARMACEUTICAL COMPOSITION FOR TREATING DISORDERS ASSOCIATED WITH INSULIN RESISTANCE” (National Central University, priority 2012, published 2015).
Entries after “also recorded” stand apart in the source; their conditions may differ.

Legend:
STAT3 = STAT3 phosphorylation in differentiated 3T3-L1 adipocytes (Western blotting); format: cell-based; conditions: for basal level of phosphorylation of STAT3: inhibitor 1 μM alone, absence of ET-1
Method: (§1) Referring to FIGS. 2A, 2B, 2C, 2D, and 2E which are presented to detect the time-dependent effect of ET-1 on ET-1 signaling molecules, including ERK1 /2, JNKs, p38, […] or STAT3 proteins, the differentiated 3T3-L1 adipocytes are treated with or without 100 nM ET-1 at different time points, such as 2, 5, 15, 30, 120, and 240 minutes. After ET-1 incubation, the total protein amounts and the phosphorylation levels of each ET-1 signaling molecule are determined by Western blotting analysis.
(§2) Referring to FIGS. 3A, 3B, and 3C which are presented to further study the endothelin receptor-dependent of ET-1 on the phosphorylation of downstream signaling molecules and on resistin mRNA expression, the differentiated 3T3-L1 adipocytes are pretreated with or without either 1 μM BQ610 (an ETAR inhibitor) or 1 μM BQ788 (an endothelin type B receptor (ETBR) inhibitor) for 1 hour, and then incubated with 100 nM ET-1. After different time points of ET-1 treatment, ET-1 signaling molecules, such as ERK1/2, JNKs, P38, AKT, and STAT3 proteins, and resistin mRNA levels are determined by Western blotting analysis and PCR analysis, respectively. FIG. 3A, 3B, and 3C are presented with or without 5, 15, and 120 minutes of 100 nM ET-1 treatments, respectively.
(§3) Referring to FIGS. 4A, 4B, 4C, 4D, and 4E which are presented to study the effect of the inhibitors of ET-1 signaling molecules, the differentiated 3T3-L1 adipocytes are pretreated with or without the specific inhibitors of ERK1/2, JNK, AKT, STAT3, or p38 for 30 minutes and then incubated with 100 nM ET-1. These inhibitors comprise 1,4-diamino-2,3-dicyano-1,4-bis [2-aminophenylthio]butadiene (U0126, 25 μM; an ERK1/2 inhibitor), 2-(2-Amino-3-methoxyphenyl)-4H-1-benzopyran-4-one (PD98059, 50 μM; an ERK1/2 inhibitor), anthrapyrazolone (SP600125, 20 μM; a JNK inhibitor), SB203580 (20 μM; a p38 inhibitor), 2-(4-morpholinyl)-8-phenyl-4H-1-benzopyran-4-one (LY294002, 50 μM; a PI3K/AKT inhibitor), wortmannin (0.2 μM; a PI3K/AKT inhibitor), and tyrphostin (AG490, 20 μM; a STAT3 inhibitor). After 5, 15 and 120 minutes of 100-nM ET-1 treatment, the total amounts and the phosphorylation level of the above ET-1 signaling molecules corresponding to the ET-1 stimulated increases in resistin mRNA level are determined by Western blotting analysis.

resistin mRNA = resistin mRNA level in differentiated 3T3-L1 adipocytes (RT-PCR, real time-PCR); format: cell-based, mouse; conditions: for resistin mRNA level: pretreatment with inhibitor 1 μM alone, no ET-1
Method: Referring to FIGS. 1A and 1B which are presented to detect the time-dependent effect of ET-1 on resistin mRNA level, the differentiated 3T3-L1 adipocytes are treated with 100 nM ET-1 at different time periods, including 0, 0.25, 0.5, 1, 2, 4, 6, 8, 12, and 24 hours, After the treatment, resistin mRNA is analyzed by the respective method of reverse transcription-polymerase chain reaction (RT-PCR) (FIG. 1A) and real time-PCR. The forward and reverse primers are [NT] and [NT] for mouse GAP DH and [NT] and [NT] for mouse resistin, respectively. […] The duration of ET-1 incubation that causes the maximum effect on resistin mRNA levels is 2 hours. Referring to FIGS. 1C and 1D which are presented to detect the concentration-dependent effect of ET-1 on resistin mRNA level, the differentiated 3T3-L1 adipocytes are treated with different concentrations of ET-1, such as 0, 10, 50, and 100 nM. After 2 hours of ET-1 incubation, resistin mRNA levels are determined by RT-PCR (FIG. 1C) and by real time-PCR (FIG. 1D). Levels of resistin mRNA are increased by 50%, 100%, and 200% after 10, 50 and 100 nM ET-1 are respectively added. According to the results, 100 nM ET-1 is used in the following embodiments of the present invention for treatment of the differentiated 3T3-L1 adipocytes. […] After different time points of ET-1 treatment, ET-1 signaling molecules, such as ERK1/2, JNKs, P38, AKT, and STAT3 proteins, and resistin mRNA levels are determined by Western blotting analysis and PCR analysis, respectively.

ERK1/2 = ERK1/2 phosphorylation in differentiated 3T3-L1 adipocytes (Western blotting); format: cell-based; conditions: for basal level of phosphorylation of ERK1/2: inhibitor 1 μM alone, absence of ET-1
Method: as §1, §2, §3

JNKs = JNKs phosphorylation in differentiated 3T3-L1 adipocytes (Western blotting); format: cell-based; conditions: for basal level of phosphorylation of JNKs: inhibitor 1 μM alone, absence of ET-1; for ET-1-stimulated phosphorylation of JNKs: inhibitor 1 μM pretreated 1 hour, then 100 nM ET-1 for 5 or 15 minutes
Method: as §1, §2, §3

AKT = AKT phosphorylation in differentiated 3T3-L1 adipocytes (Western blotting); format: cell-based; conditions: for basal level of phosphorylation of AKT: inhibitor 1 μM alone, absence of ET-1
Method: as §1, §2, §3

p38 = p38 phosphorylation in differentiated 3T3-L1 adipocytes (Western blotting); format: cell-based
Method: as §1
as §2, with “treatments, respectively. […]” for “treatments, respectively.”

resistin protein = resistin protein level in differentiated 3T3-L1 adipocytes (Western blotting); format: cell-based
Method: Referring to FIG. 4F which detects the concentration-dependent effect of ET-1 on resistin protein level, the differentiated 3T3-L1 adipocytes are treated with different concentrations of ET-1, such as 0, 10, 50, and 100 nM. After ET-1 incubation, resistin protein levels are determined by Western blotting analysis. Levels of resistin protein are increased by about 120%, 130%, and 140% after 10, 50 and 100 nM ET-1 are respectively added.

[1] = inhibitor 1 μM pretreated 1 hour, then 100 nM ET-1 for 5 or 15 minutes
[2] = inhibitor 1 μM, in the presence and absence of ET-1
[3] = inhibitor 50 μM pretreated 30 minutes, then 100 nM ET-1
[4] = inhibitor 20 μM pretreated 30 minutes, then 100 nM ET-1
[5] = 100 nM ET-1 alone for 5 minutes or 15 minutes
[6] = 100 nM ET-1, time points 2-240 minutes

Molecule: CC(C)C[C@H](NC(=O)N1CCCCCC1)C(=O)N[C@H](Cc1cn(C=O)c2ccccc12)C(=O)N[C@H](Cc1c[nH]c2ccccc12)C(=O)O [BQ610]
- basal level of phosphorylation of STAT3 (STAT3): does not alter
- ET-1-stimulated phosphorylation of STAT3 (STAT3; [1]): inhibits
- ET-1-stimulated resistin mRNA expression (resistin mRNA; inhibitor 1 μM pretreated 1 hour, then 100 nM ET-1 for 120 minutes): suppresses
- resistin mRNA level (resistin mRNA): does not alter
- basal level of phosphorylation of ERK1/2 (ERK1/2): does not alter
- ET-1-stimulated phosphorylation of ERK1/2 (ERK1/2; [1]): inhibits
- basal level of phosphorylation of JNKs (JNKs): does not alter
- ET-1-stimulated phosphorylation of JNKs (JNKs): inhibits
- basal level of phosphorylation of AKT (AKT): does not alter
- ET-1-stimulated phosphorylation of AKT (AKT; [1]): inhibits

Molecule: CCCC[C@@H](NC(=O)[C@@H](Cc1cn(C(=O)OC)c2ccccc12)NC(=O)[C@H](CC(C)(C)C)NC(=O)N1[C@H](C)CCC[C@@H]1C)C(=O)O [BQ788]
- basal level of phosphorylation of STAT3 (STAT3): does not alter
- ET-1-stimulated phosphorylation of STAT3 (STAT3; [1]): does not alter
- total amounts of STAT3 protein (STAT3; [2]): does not alter
- resistin mRNA level (resistin mRNA): does not alter
- basal level of phosphorylation of ERK1/2 (ERK1/2): does not alter
- ET-1-stimulated phosphorylation of ERK1/2 (ERK1/2; [1]): does not alter
- total amounts of ERK1/2 protein (ERK1/2; [2]): does not alter
- basal level of phosphorylation of JNKs (JNKs): does not alter
- ET-1-stimulated phosphorylation of JNKs (JNKs): does not alter
- total amounts of JNKs protein (JNKs; [2]): does not alter
- basal level of phosphorylation of AKT (AKT): does not alter
- ET-1-stimulated phosphorylation of AKT (AKT; [1]): does not alter
- total amounts of AKT protein (AKT; [2]): does not alter

Molecule: O=c1cc(N2CCOCC2)oc2c(-c3ccccc3)cccc12 [LY294002, 2-(4-morpholinyl)-8-phenyl-4H-1-benzopyran-4-one]
- ET-1-stimulated phosphorylation of AKT (AKT; [3]): inhibited

Molecule: COc1cccc(-c2cc(=O)c3ccccc3o2)c1N [PD98059, 2-(2-Amino-3-methoxyphenyl)-4H-1-benzopyran-4-one]
- ET-1-stimulated phosphorylation of ERK1/2 (ERK1/2; [3]): inhibited

Molecule: C[S+]([O-])c1ccc(-c2nc(-c3ccncc3)c(-c3ccc(F)cc3)[nH]2)cc1 (stereo not shown) [SB203580]
- phosphorylation of p38 (p38; [4]): not stimulated by ET-1 or inhibited

Molecule: N#CC(=C(N)Sc1ccccc1N)C(C#N)=C(N)Sc1ccccc1N [U0126, 1,4-diamino-2,3-dicyano-1,4-bis [2-aminophenylthio]butadiene]
- ET-1-stimulated phosphorylation of ERK1/2 (ERK1/2; inhibitor 25 μM pretreated 30 minutes, then 100 nM ET-1): inhibited

Molecule: ET-1: endothelin-1, one of the strongest vasoconstrictors; stimulus used on 3T3-L1 adipocytes
- phosphorylation of STAT3 (STAT3; [5]): increased phosphorylation
- phosphorylation of p38 on ET-1 stimulation (p38; 100 nM ET-1): not altered; also recorded: not stimulated
- increase of resistin mRNA levels (resistin mRNA; 10 nM ET-1, 2 hours): 50%
- increase of resistin mRNA levels (resistin mRNA; 50 nM ET-1, 2 hours): 100%
- increase of resistin mRNA levels (resistin mRNA; 100 nM ET-1, 0.25-12 hours after treatment, differentiated 3T3-L1 adipocytes): 100-250%
- increase of resistin mRNA levels (resistin mRNA; 100 nM ET-1, 2 hours): 200%
- duration of ET-1 incubation that causes the maximum effect on resistin mRNA levels (resistin mRNA; 100 nM ET-1, time course 0-24 hours): 2 h
- time of maximum phosphorylation of ERK1/2 (ERK1/2; [6]): 2 min
- phosphorylation of ERK1/2 (ERK1/2; [5]): increased phosphorylation
- time of maximum phosphorylation of JNKs (JNKs; [6]): 15 min
- phosphorylation of JNKs (JNKs; [5]): increased phosphorylation
- phosphorylation of AKT (AKT; [5]): increased phosphorylation
- increase of resistin protein levels (resistin protein; 10 nM ET-1): about 120%
- increase of resistin protein levels (resistin protein; 50 nM ET-1): ~130%
- increase of resistin protein levels (resistin protein; 100 nM ET-1): ~140%

Molecule: tyrphostin [AG490]
- ET-1-stimulated phosphorylation of STAT3 (STAT3; [4]): inhibited
